# Assay results taken from paper PMC8728392, “Synthesis, Anticancer Assessment, and Molecular Docking of Novel Chalcone-Thienopyrimidine Derivatives in HepG2 and MCF-7 Cell Lines” (Oxidative Medicine and Cellular Longevity, 2021).
# What was measured:
# [1] = system: GR activity in MCF-7 cells; assay: Glutathione reductase (GR) activity; format: cell-based, human; conditions: IC50, in comparison to untreated cells
# Experimental: The activity of GR was determined by the decrease in absorbance caused by the oxidation of NADPH during the reduction of oxidized GSH [41].
# The activity of GR was determined by the decrease in absorbance caused by the oxidation of NADPH during the reduction of oxidized GSH (Malik et al., 2019). HepG2 or MCF-7cells were pre-treated with newly synthesized chalcone-thienopyrimidines derivatives for 24 hours, harvested and the pellet was re-suspended in twice the volume of protein extraction buffer (PEB). Cells were then vortexed vigorously for 2 min, repeating the cycle three times. Homogenate was then centrifuged at 10,000 rpm for 10 min. The supernatant was collected and was used to quantitate antioxidant enzyme GR using standard protocols. All determinations were made in at least five replicates and the values given are the average of these replicates.
# [2] = system: HepG2 cells; assay: Annexin V-FITC/PI apoptotic assay; format: cell-based, human
# Excerpt: (§1) Annexin V-fluorescein isothiocyanate (FITC) and counterstaining with propidium iodide (PI) using the Annexin V-FITC/PI apoptosis detection kit (BD Biosciences, San Diego, CA) were employed to distinguish early and late apoptotic cells according to the manufacturer's directions. Annexin V conjugated with fluorescein isothiocyanate was used to quantify the loss of phosphatidylserine asymmetry in cell membranes involved in apoptosis, and propidium iodide can distinguish between early apoptosis, late apoptotic, and necrotic cells. Analyses were achieved by using a FACSCalibur flow cytometer (BD Biosciences, San Jose, CA).
# (§2) Cells were gently washed twice with PBS accompanied by tryptic digestion (0.25% trypsin/EDTA) and washed yet again with PBS. All the cells including the floating and adherent ones were harvested, pooled and stained with […] in 1× binding buffer for 15 min at room temperature in the dark. Analyses were achieved by FACS Calibur flow cytometer (BD Biosciences, San Jose, CA).
# [3] = system: MCF-7 cell line; assay: Annexin V-FITC/PI apoptotic assay; format: cell-based, human
# Excerpt: as §1, §2
# [4] = system: MDA in MCF-7 cells; assay: Lipid peroxidation (MDA); format: cell-based, human; conditions: IC50, in comparison to untreated cells
# Experimental: MDA is described as a lipid peroxidation product. It reacts with thiobarbituric acid to produce a red substance that is absorbed at 535 nm.
# MDA has been described as the product of lipid peroxidation that reacts with thiobarbituric acid to produce a red substance that is absorbed at 535 nm (Kei et al., 1978). HepG2 and MCF7 cells treated with synthetic thienopyrimidine were mixed with 2 ml of solution of trichloroacetic acid (TCA), thiobarbituric acid (TBA) and hydrochloric acid (HCl) and mixed thoroughly, and then heated in a boiling water bath. during 15 minutes. After cooling, the precipitate was removed by centrifugation at 3000 rpm for 10 minutes. Relative to the reagent blank, which measures the absorbance at 535 nm, the blank reagent contains all reagents except cells. The MDA concentration is expressed as nmol/ml using a calibration curve.
# [5] = system: Bax, Bcl-2, caspase-3, and caspase-9 in HepG2; assay: RT-PCR relative expression of apoptosis markers; format: cell-based, human; conditions: IC50, 8-hour incubation, vs control
# Excerpt: We determined the effect of IC50 concentration of newly synthesized thienopyrimidine derivatives (3a-e and 3g and 3b and 3g) on the relative expression levels of some markers of apoptosis in HepG2 and MCF-7 cell lines, respectively. These included the antiapoptotic marker Bcl-2 as well as the apoptotic markers Bax, caspase-3, and caspase-9 [33]. BIORAD iScript™ One-Step RT-PCR kit with SYBR® Green was used to assess the relative levels of expression of apoptosis markers. The measurement was carried out according to the technique of reverse transcription polymerase chain reaction (RT-PCR) using the Rotor-Gene RT-PCR system, and the method of the used kit was done based on the manufacturer's instructions. The procedure of this assay included the following:
# Based on the manufacturer's instructions, the Qiagen RNeasy Extraction Kit (Qiagen Ltd., UK) was used to isolate mRNA from approximately 1 × 10^7 cells according to the cell line.
# Mix all the following reagents to get the total volume (50 μl): 2X SYBR® Green RTPCR reaction mixture (25 μl), forward primer […] (1.5 μl), reverse primer […] (1.5 μl), nuclease-free water (11 μl), RNA template (1 pg-100 ng total RNA) (10 μl), and iScript reverse transcriptase (1 μl) for One-Step RT-PCR.
# The thermal cycler (Rotor-Gene) program used was as follows: one cycle for reverse transcription at 50°C for 10 minutes and one cycle for RT inactivation/Hot-start activation at 95°C for 5 minutes and then 45 cycles for qPCR (10 s at 95°C, 30 seconds for annealing at 55°C, and 30 seconds for extension at 72°C), and this is followed by the final extension (one cycle) at 72°C for 10 minutes.
melting point,Compound,GR activity [1],early and late apoptosis [2],"total, early, and late apoptosis as well as necrosis relative to the control cells [3]",MDA [4],expression levels of Bcl-2 [5]
172 to 173 °C,"CCOC(=O)Cn1c(SCC(=O)Nc2ccc(C(=O)/C=C\c3cc(OC)c(OC)c(OC)c3)cc2)nc2sc3c(c2c1=O)CCN(C(=O)OCC)C3 [Compound 3b, Ethyl (Z)-3-(2-Ethoxy-2-oxoethyl)-4-oxo-2-((2-oxo-2-((4-(3-(3,4,5 trimethoxyphenyl)acryloyl)phenyl)amino)ethyl)thio)-3,5,6,8 tetra-hydropyrido[4′,3′:4,5]thieno[2,3-d]pyrimidine-7(4H)-carboxylate]",significant decline,significantly exhibited early and late apoptosis,significant increase,significant elevation,
194 to 195 °C,"CCOC(=O)Cn1c(SCC(=O)Nc2ccc(C(=O)/C=C\c3cccc([N+](=O)[O-])c3)cc2)nc2sc3c(c2c1=O)CC(C)(C)NC3(C)C [Compound 3g, Ethyl (Z)-2-(6,6,8,8-Tetramethyl-2-((2-((4-(3-(3-nitrophenyl)acryloyl)-phenyl)amino)-2-oxoethyl)thio)-4-oxo-5,6,7,8-tetrahydropyrido[4′,3′:4,5]thieno[2,3-d]pyrimidin-3(4H)-yl)acetate]",significant decline,significantly exhibited early and late apoptosis,,significant elevation,noticeably decreased
